From US7268152B2, “Glucocorticoid mimetics, methods of making them, pharmaceutical compositions, and uses thereof” (Boehringer Ingelheim Pharmaceuticals, Inc., priority 2002, dated 2007)

The compounds below were run against T1, human glucocorticoid receptor (GR) complex (Homo sapiens, UniProt P04150) (assay: Glucocorticoid receptor competitive binding assay (fluorescence polarization)). Details: competition with TAMRA-labeled dexamethasone.
T1 construct: made in house; host or cells: insect expression system (baculovirus lysate)
T1 sequence (P04150 1-777): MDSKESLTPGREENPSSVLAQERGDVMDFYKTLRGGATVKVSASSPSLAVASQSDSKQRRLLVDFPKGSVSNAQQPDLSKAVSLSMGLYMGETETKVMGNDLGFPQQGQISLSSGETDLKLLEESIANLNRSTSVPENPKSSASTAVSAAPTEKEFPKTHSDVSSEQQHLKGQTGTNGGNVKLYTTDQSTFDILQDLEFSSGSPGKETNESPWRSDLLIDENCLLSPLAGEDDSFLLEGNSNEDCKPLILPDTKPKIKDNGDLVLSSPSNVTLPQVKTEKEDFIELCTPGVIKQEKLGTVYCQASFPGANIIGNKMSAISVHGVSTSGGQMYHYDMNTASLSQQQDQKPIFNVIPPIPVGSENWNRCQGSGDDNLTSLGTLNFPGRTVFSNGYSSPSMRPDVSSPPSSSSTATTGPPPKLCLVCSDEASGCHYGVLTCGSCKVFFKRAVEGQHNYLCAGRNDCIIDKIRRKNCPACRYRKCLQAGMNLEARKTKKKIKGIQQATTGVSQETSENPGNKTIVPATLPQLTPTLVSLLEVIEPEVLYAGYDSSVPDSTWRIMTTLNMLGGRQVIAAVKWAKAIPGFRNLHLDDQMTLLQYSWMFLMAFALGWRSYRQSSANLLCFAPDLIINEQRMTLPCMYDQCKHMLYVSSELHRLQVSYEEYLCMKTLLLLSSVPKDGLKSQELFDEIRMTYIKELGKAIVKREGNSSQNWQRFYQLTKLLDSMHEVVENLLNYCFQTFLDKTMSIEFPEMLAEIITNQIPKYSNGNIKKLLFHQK
Description: Compounds of the invention were evaluated for binding to the steroid receptor by a fluorescence polarization competitive binding assay. Detailed descriptions for preparation of recombinant glucocorticoid receptor (GR) complex used in the assay is described in U.S. provisional application No. 60/291,877, filed May 18, 2001, and incorporated herein by reference in its entirety. Preparation of the tetramethyl rhodamine (TAMRA)-labeled dexamethasone probe was accomplished using a standard literature procedure (M. Pons et al., J. Steroid Biochem., 1985, 22, pp. 267-273).
A. Glucocorticoid Receptor Competitive Binding Assay
Step 1. Characterization of the Fluorescent Probe
The wavelengths for maximum excitation and emission of the fluorescent probe should first be measured. An example of such a probe is rhodamine (TAMRA)-labeled dexamethasone.
The affinity of the probe for the steroid receptor was then determined in a titration experiment. The fluorescence polarization value of the probe in assay buffer was measured on an SLM-8100 fluorometer using the excitation and emission maximum values described above. Aliquots of expression vector lysate were added and fluorescence polarization was measured after each addition until no further change in polarization value was observed. Non-linear least squares regression analysis was used to calculate the dissociation constant of the probe from the polarization values obtained for lysate binding to the probe.
Step 2. Screeningfor Inhibitors of Probe Binding
This assay uses fluorescence polarization (FP) to quantitate the ability of test compounds to compete with tetramethyl rhodamine (TAMRA)-labeled dexamethasone for binding to a human glucocorticoid receptor (GR) complex prepared from an insect expression system. The assay buffer was: 10 mM TES, 50 mM KCl, 20 mM Na2MoO4.2H2O, 1.5 mM EDTA, 0.04% w/v CHAPS, 10% v/v glycerol, 1 mM dithiothreitol, pH 7.4. Test compounds were dissolved to 1 mM in neat DMSO and then further diluted to 10×assay concentration in assay buffer supplemented with 10% v/v DMSO. Test compounds were serially diluted at 10×assay concentrations in 10% DMSO-containing buffer in 96-well polypropylene plates. Binding reaction mixtures were prepared in 96-well black Dynex microtiter plates by sequential addition of the following assay components to each well: […] of 10×test compound solution, 85 μL of GR-containing baculovirus lysate diluted 1:170 in assay buffer, and 50 μL of 15 nM TAMRA-labeled dexamethasone. Positive controls were reaction mixtures containing no test compound; negative controls (blanks) were reaction mixtures containing 0.7 μM to 2 μM dexamethasone. The binding reactions were incubated for 1 hour at room temperature and then read for fluorescence polarization in the LJL Analyst set to 550 nm excitation and 580 nm emission, with the Rhodamine 561 dichroic mirror installed. IC50 values were determined by iterative non-linear curve fitting of the FP signal data to a 4-parameter logistic equation.

IC50 [µM] | SMILES
≤ 0.1 | CCOc1ccc(F)cc1C(C)(C)CC(O)(Cc1cc(C(F)(F)F)cc(Cl)c1F)C(F)(F)F (stereo not drawn) [2-(3-Chloro-2-fluoro-5-trifluoromethylbenzyl)-4-(2-ethoxy-5-fluorophenyl)-1,1,1-trifluoro-4-methylpentan-2-ol]
≤ 0.1 | CC(C)(CC(O)(Cc1cc(C(F)(F)F)cc(Cl)c1F)C(F)(F)F)c1ccc(Cl)c(Cl)c1 (stereo not drawn) [2-(3-Chloro-2-fluoro-5-trifluoromethylbenzyl)-4-(3,4-dichlorophenyl)-1,1,1-trifluoro-4-methylpentan-2-ol]
≤ 0.1 | CC(C)(CC(O)(Cc1cc(C(F)(F)F)cc(Cl)c1F)C(F)(F)F)c1cccc(Cl)c1 (stereo not drawn) [2-(3-Chloro-2-fluoro-5-trifluoromethylbenzyl)-4-(3-chlorophenyl)-1,1,1-trifluoro-4-methylpentan-2-ol]
≤ 0.1 | COc1ccc(F)cc1C(C)(C)CC(O)(Cc1cccc(Cl)c1F)C(F)(F)F (stereo not drawn) [2-(3-Chloro-2-fluorobenzyl)-1,1,1-trifluoro-4-(5-fluoro-2-methoxyphenyl)-4-methylpentan-2ol]
≤ 0.1 | COc1ccc(F)cc1C(C)(C)CC(O)(Cc1ccc(F)c(Cl)c1)C(F)(F)F (stereo not drawn) [2-(3-Chloro-4-fluorobenzyl)-1,1,1-trifluoro-4-(5-fluoro-2-methoxyphenyl)-4-methylpentan-2-ol]
≤ 0.1 | COc1ccc(F)cc1C(C)(C)CC(O)(Cc1ccc(Cl)c(C(F)(F)F)c1)C(F)(F)F (stereo not drawn) [2-(4-Chloro-3-trifluoromethylbenzyl)-1,1,1-trifluoro-4-(5-fluoro-2-methoxyphenyl)-4-methylpentan-2-ol]
≤ 0.1 | COc1ccc(F)cc1C(C)(C)CC(O)(Cc1cc(Cl)ccc1F)C(F)(F)F (stereo not drawn) [2-(5-Chloro-2-fluorobenzyl)-1,1,1-trifluoro-4-(5-fluoro-2-methoxyphenyl)-4-methylpentan-2-ol]
≤ 0.1 | CC(C)(CC(O)(Cc1ccccc1)C(F)(F)F)c1ccccc1 (stereo not drawn) [2-Benzyl-1,1,1-trifluoro-4-methyl-4-phenylpentan-2-ol]
≤ 0.1 | COc1ccc(F)cc1C(C)(C)CC(O)(Cc1ccc(-c2ccccc2)cc1)C(F)(F)F (stereo not drawn) [2-Biphenyl-4-ylmethyl-1,1,1-trifluoro-4-(5-fluoro-2-methoxyphenyl)-4-methylpentan-2-ol]
≤ 0.1 | CC(C)(CC(O)(Cc1ccc(Cl)c(Cl)c1)C(F)(F)F)c1cc(F)ccc1O (stereo not drawn) [2-[3-(3,4-Dichlorobenzyl)-4,4,4-trifluoro-3-hydroxy-1,1-dimethylbutyl]-4-fluorophenol]
≤ 0.1 | CC(C)(CC(O)(Cc1ccc(F)c(F)c1)C(F)(F)F)c1cc(F)ccc1O (stereo not drawn) [2-[3-(3,4-Difluorobenzyl)-4,4,4-trifluoro-3-hydroxy-1,1-dimethylbutyl]4-fluorophenol]
≤ 0.1 | CC(C)(CC(O)(Cc1cc(C(F)(F)F)cc(C(F)(F)F)c1)C(F)(F)F)c1cc(F)ccc1O (stereo not drawn) [2-[3-(3,5-Bis-trifluoromethylbenzyl)-4,4,4-trifluoro-3-hydroxy-1,1-dimethylbutyl]-4-fluorophenol]
≤ 0.1 | CC(C)(CC(O)(Cc1cc(Cl)cc(Cl)c1)C(F)(F)F)c1cc(F)ccc1O (stereo not drawn) [2-[3-(3,5-Dichlorobenzyl)-4,4,4-trifluoro-3-hydroxy-1,1-dimethylbutyl]4-fluorophenol]
≤ 0.1 | CC(C)(CC(O)(Cc1cc(F)cc(F)c1)C(F)(F)F)c1cc(F)ccc1O (stereo not drawn) [2-[3-(3,5-Difluorobenzyl)-4,4,4-trifluoro-3-hydroxy-1,1-dimethylbutyl]-4-fluorophenol]
≤ 0.1 | Cc1cc(C)cc(CC(O)(CC(C)(C)c2cc(F)ccc2O)C(F)(F)F)c1 (stereo not drawn) [2-[3-(3,5-Dimethylbenzyl)-4,4,4-trifluoro-3-hydroxy-1,1-dimethylbutyl]4-fluorophenol]
≤ 0.1 | CC(C)(CC(O)(Cc1cc(C(F)(F)F)cc(Cl)c1F)C(F)(F)F)c1cc(F)ccc1O (stereo not drawn) [2-[3-(3-Chloro-2-fluoro-5-trifluoromethylbenzyl)-4,4,4-trifluoro-3-hydroxy-1,1-dimethylbutyl]-4-fluorophenol]
≤ 0.1 | CC(C)(CC(O)(Cc1ccc(Cl)cc1)C(F)(F)F)c1cc(F)ccc1O (stereo not drawn) [2-[3-(4-Chlorobenzyl)-4,4,4-trifluoro-3-hydroxy-1,1-dimethylbutyl]-4-fluorophenol]
≤ 0.1 | CC(C)(CC(O)(Cc1ccc(C#N)cc1Cl)C(F)(F)F)c1ccc(O)cc1 (stereo not drawn) [3-Chloro-4-[2-hydroxy-4-(4-hydroxyphenyl)-4-methyl-2-trifluoromethylpentyl]benzonitrile]
≤ 0.1 | COc1ccc(C(C)(C)CC(O)(Cc2ccc(C#N)cc2Cl)C(F)(F)F)cc1 (stereo not drawn) [3-Chloro-4-[2-hydroxy-4-(4-methoxyphenyl)-4-methyl-2-trifluoromethylpentyl]benzonitrile]
≤ 0.1 | COc1ccc(F)cc1C(C)(C)CC(O)(Cc1cc(Cl)cc(C#N)c1)C(F)(F)F (stereo not drawn) [3-Chloro-5-[4-(5-fluoro-2-methoxyphenyl)-2-hydroxy-4-methyl-2-trifluoromethylpentyl]benzonitrile]
≤ 0.1 | COc1ccc(F)cc1C(C)(C)CC(O)(Cc1ccc(C#N)cc1F)C(F)(F)F (stereo not drawn) [3-Fluoro-4-[4-(5-fluoro-2-methoxyphenyl)-2-hydroxy-4-methyl-2-trifluoromethylpentyl]benzonitrile]
≤ 0.1 | COc1ccc(F)cc1C(C)(C)CC(O)(Cc1cccc(C#N)c1)C(F)(F)F (stereo not drawn) [3-[4-(5-Fluoro-2-methoxyphenyl)-2-hydroxy-4-methyl-2-trifluoromethylpentyl]benzonitrile]
≤ 0.1 | CC(C)(CC(O)(Cc1ccc(Cl)c(Cl)c1)C(F)(F)F)c1cccc(Cl)c1 (stereo not drawn) [4-(3-Chlorophenyl)-2-(3,4-dichlorobenzyl)-1,1,1-trifluoro-4-methylpentan-2-ol]
≤ 0.1 | CC(C)(CC(O)(Cc1cc(F)cc(C(F)(F)F)c1)C(F)(F)F)c1cc(F)ccc1O (stereo not drawn) [4-Fluoro-2-[4,4,4-trifluoro-3-(3-fluoro-5-trifluoromethylbenzyl)-3-hydroxy-1,1-dimethylbutyl]phenol]
≤ 0.1 | Cc1cc(CC(O)(CC(C)(C)c2cc(F)ccc2O)C(F)(F)F)ccc1F (stereo not drawn) [4-Fluoro-2-[4,4,4-trifluoro-3-(4-fluoro-3-methylbenzyl)-3-hydroxy-1,1-dimethylbutyl]phenol]
≤ 0.1 | Cc1ccccc1CC(O)(CC(C)(C)c1cc(F)ccc1O)C(F)(F)F (stereo not drawn) [4-Fluoro-2-[4,4,4-trifluoro-3-hydroxy-1,1-dimethyl-3-(2-methylbenzyl)butyl]phenol]
≤ 0.1 | CC(C)(CC(O)(Cc1cc(F)c(F)c(F)c1)C(F)(F)F)c1cc(F)ccc1O (stereo not drawn) [4-Fluoro-2-[4,4,4-trifluoro-3-hydroxy-1,1-dimethyl-3-(3,4,5-trifluorobenzyl)butyl]phenol]
≤ 0.1 | Cc1cccc(CC(O)(CC(C)(C)c2cc(F)ccc2O)C(F)(F)F)c1 (stereo not drawn) [4-Fluoro-2-[4,4,4-trifluoro-3-hydroxy-1,1-dimethyl-3-(3-methylbenzyl)butyl]phenol]
≤ 0.1 | CC(C)(CC(O)(Cc1ccc(O)cc1)C(F)(F)F)c1cc(F)ccc1O (stereo not drawn) [4-Fluoro-2-[4,4,4-trifluoro-3-hydroxy-3-(4-hydroxybenzyl)-1,1-dimethylbutyl]phenol]
≤ 0.1 | CC(C)(CC(O)(Cc1ccc(C#N)cc1)C(F)(F)F)c1cc(F)ccc1O (stereo not drawn) [4-[4-(5-Fluoro-2-hydroxyphenyl)-2-hydroxy-4-methyl-2-trifluoromethylpentyl]benzonitrile]
